Data set [1] can be described thus: on-resin Ugi-4CR macrocyclisation (stapling), Lys side-chain amine (i) to Asp/Glu side-chain acid (i+4): 1) paraformaldehyde 4 eq, pyrrolidine 4 eq, THF/MeOH 1:1, 30 min (imine); 2) isocyanide R-NC 4 eq, DCM/TFE 1:1, overnight; then TFA/TIS/H2O cleavage. Conditions: the molecule shown is the open-chain precursor, 18.0 h, 3 steps.
Data set [2] concerns Phytophthora infestans (Mont.) de Bary.
Data set [3] has as its system Septoria tritici Desm.
Data set [4] deals with Botrytis cinerea Pers.
The mark [5] stands for this setting: read-out: IC50 in μM, Phythophtora Infestants, Figures 1B and 2C, 96-well plate, OD 405 nm seven days after inoculation, triplicate, IC50 from dose-response curves by linear regression.
Setting [6] is: read-out: Half maximal inhibitory concentration, Phytophthora Infestans.
Setting [7] is: read-out: Half maximal inhibitory concentration, Septoria Tritici.
[8] abbreviates: read-out: Half maximal inhibitory concentration, Botrytis Cinerea.

The values that follow come from publication PMC7070897 (Molecules, 2020).

Values joined by “and” are separate entries in the source; they are usually repeats but may differ in a detail not shown here. Equal entries are not always repeated. Where two headings read alike, the source gives them in different places. Positions of bridges follow the written chain, without caps; N, C: chain ends. Residues, ends and D or L forms follow the SMILES beside them.

As to `C=NCCCC[C@H](NC(=O)[C@H](C)NC(=O)[C@H](CCCCNC(=O)OC(C)(C)C)NC(=O)[C@H](CC(C)C)NC(=O)[C@H](CC(C)C)NC(=O)[C@H](CCCCNC(=O)OC(C)(C)C)NC(=O)[C@H](C)NC(=O)[C@H](CC(C)C)NC(C)=O)C(=O)N[C@@H](C)C(=O)N[C@@H](CCCCNC(=O)OC(C)(C)C)C(=O)N[C@@H](C)C(=O)N[C@@H](CC(=O)O)C(N)=O`, in data set [1] (20-membered ring), the ring closure, conversion by HPLC (% crude UHPLC purity after cleavage) was 63 and 54.

In the case of “Ac-LKKLLKKLLKKL-NH2 [Peptide 5, Ac-LKKLLKKLLKKL]”, the IC50 is 5.4 µM in data set [2] (setting [5]), 4.5 µM in data set [3] and more than 50 µM in data set [4].

Consider `CC(=O)N[C@@H](CC(C)C)C(=O)N[C@@H](CCCCN)C(=O)N[C@@H](CCCCN)C(=O)N[C@@H](CC(C)C)C(=O)N[C@@H](CC(C)C)C(=O)N[C@@H](CCCCN)C(=O)N[C@@H](CCCCN)C(=O)N[C@H]1CCCCNC(=O)CC[C@@H](C(N)=O)NC(=O)[C@H](CCCCN)NC(=O)[C@H](CCCCN)NC(=O)[C@H](CC(C)C)NC1=O` [Peptide 6, Ac-(cyclo-8,12))-[LKKLLKKKLKKE]-NH2] (Ac-LKKLLKKKLKKE-NH2; lactam 8-12), for which the IC50 in data set [2] (setting [5]) is 18 µM; in data set [3], 16.6 µM; in data set [4], more than 50 µM.

With “Ac-(cyclo-8,12))-[LAKLLKAKAKAD]-NH2 (sidechain bridge or staple) [Peptide 4]”, the IC50 was 20.9 µM in data set [2] (setting [6]), more than 50 µM in data set [3] (setting [7]) and more than 50 µM in data set [4] (setting [8]).

For Ac-LAKLLKAKAKAD-NH2 [Peptide 1], the IC50 in data set [2] (setting [6]), in data set [3] (setting [7]) and in data set [4] (setting [8]) was more than 50 µM each time.

For “Ac-(N-(2-(n-butylamino)-2-oxoethyl)-(cyclo-8,12))-[LAKLLKAKAKAD]-NH2 (sidechain bridge or staple) [Peptide 2]”, the IC50 in data set [2] (setting [6]) is 26.2 µM; in data set [3] (setting [7]), more than 50 µM; in data set [4] (setting [8]), more than 50 µM.

In the case of “Ac-(N-(2-(n-dodecylamino)-2-oxoethyl)-(cyclo-8,12))-[LAKLLKAKAKAD]-NH2 (sidechain bridge or staple) [Peptide 3]”, the IC50 in data set [2] (setting [6]) came to 14.3 µM; in data set [3] (setting [7]), 5.9 µM; in data set [4] (setting [8]) it was 9.8 µM.

Regarding `C=NCCCC[C@H](NC(=O)[C@H](CCCCNC(=O)OC(C)(C)C)NC(=O)[C@H](CC(C)C)NC(C)=O)C(=O)N[C@@H](CC(C)C)C(=O)N[C@@H](CC(C)C)C(=O)N[C@@H](CCCCNC(=O)OC(C)(C)C)C(=O)N[C@@H](CCC(=O)O)C(=O)N[C@@H](CC(C)C)C(=O)N[C@@H](CC(C)C)C(=O)N[C@@H](CCCCNC(=O)OC(C)(C)C)C(=O)N[C@@H](CCCCNC(=O)OC(C)(C)C)C(=O)N[C@@H](CC(C)C)C(N)=O`, the ring closure, conversion by HPLC (% crude UHPLC purity after cleavage) in data set [1] (21-membered ring) amounted to 68.
